Experimental findings from patent publication US12629364B2, “Methods of treating cancers overexpressing CARM1 with EZH2 inhibitors and platinum-based antineoplastic drugs” (The Wistar Institute of Anatomy and Biology, priority 2016, dated 2026) are described below.

Molecules are shown by their SMILES.

The assay concerns A1847 parental and CARM1 knockout cells. In words: Epigenetic targeting small molecule set screen (14-day colony formation). It counts as cell-based, Human. The settings on record: A1847 parental vs CARM1 knockout; 14 days; normalized to vehicle. On the procedure:
FIG. 26 illustrates that CARM1-expressing cells are selectively sensitized to EZH2 inhibitors. Equal number of parental control or CARM1 knockout […] cells were plated and treated with each of the 23 individual epigenetic inhibitors for 14 days. The media with the inhibitors was refreshed every 3 days. Cell growth was quantified as integrated density using NIH Image J software. Quantification of the average integrated density graphed as a scatter plot. The X-axis indicates the relative growth of treated CARM1 high parental […] cells compared with DMSO vehicle controls. Y-axis indicates the relative growth of treated CARM1 knockout […] cells compared with DMSO vehicle controls. n=4; and error bars represents SEM. FIG. 27 illustrates a table of EZH2 inhibitors that are selective against CARM1 expression. CARM1-high parental controls and CARM1 knockout […] cells were treated with the indicated concentration of the small molecules in a 14-day colony formation assay. Integrated density for each well was calculated using NIH Image J software. The relative growth of the indicated cells was determined by normalizing to the vehicle control treated cells. n=4 and p-value was calculated using a two-tailed t-test. FIG. 28 illustrates representative images of colonies formed by the cells treated with the indicated inhibitors. GSK126 and UNC1999 representative positive hits from the screen. […] parental and CARM1 knockout cells were plated in 24-well plates and treated with 24 epigenetic compounds. Cell medium was changed every three days with appropriate drug doses for 14 days or until control wells became confluent. Colonies were washed twice with PBS and fixed with 10% methanol and 10% acetic acid in distilled water. Fixed colonies were stained with 0.005% crystal violet. Integrated density was measured using NIH ImageJ software as a surrogate for cell growth.

On to `CC(=O)Nc1ccc(C(=O)Nc2ccccc2N)cc1` [CI994], for which the “selective growth suppression of CARM1-expressing versus CARM1 KO cells” value was “equally effective in suppressing the growth of both CARM-expressing and KO cells”.

For `CCCc1cc(C)[nH]c(=O)c1CNC(=O)c1cc(-c2ccc(N3CCN(C(C)C)CC3)nc2)cc2c1cnn2C(C)C` [UNC1999, 1-isopropyl-6-(6-(4-isopropylpiperazin-1-yl)pyridin-3-yl)-N-((6-methyl-2-oxo-4-propyl-1,2-dihydropyridin-3-yl)methyl)-1H-indazole-4-carboxamide], the “selective growth suppression of CARM1-expressing versus CARM1 KO cells” value is recorded as “showed selectivity against CARM1-expressing cells”.
